Test results from patent US20120157548A1, “USE OF CYCLOALIPHATIC DIOLS AS BIOCIDES” (BASF SE, priority 2009, published 2012).

Experiments:
S. aureus NCIMB 9578 = assay: Biocide test, MIC in tryptone soy broth; type: cell-based; conditions: 30° C., 48 hours; for MIC value, from: lower limit of MIC range; for MIC value, to: upper limit of MIC range
Method: (§1) For this, in each case a 40 percent strength by weight solution of a diol in propylene glycol was prepared at 60° C.
(§2) This solution was diluted with a double-strength soy solution (double-strength tryptone soy broth) as nutrient medium in the volume ratio 1:1. Further dilution with soy solution produced solutions with the following concentrations:
(§3) The following microorganisms were used to test the biocidal effect against various bacteria and fungi:
(§4) Pure soy solution was used as negative control. The positive control used was a solution of 5 ml of soy solution which has been treated with 0.1 ml of the respective microorganism. The test solutions consisted of 5 ml of the above-described soy solutions of the diols in the particular concentration which have been mixed with 0.1 ml of the respective microorganism.
(§5) The samples and controls were incubated in the case of the bacteria at 30° C. for 48 hours, and in the case of fungi over 5 days at 25° C.
(§6) In each case, the MIC (Minimum Inhibitory Concentration) value was determined. This value indicates the minimum concentration above which the growth of the microorganisms was visibly hindered compared to the corresponding sample without addition of the diol.
(§7) The lower the MIC value, the greater the biocidal effect.
(§8) For example, this was evident from the occurrence of clouding or visible growth of the microorganism.
(§9) The MIC value stated is a range between the next higher concentration of a positive test and the same and/or lower concentration of a first negative test.

P. vulgaris NCIMB 4175 = assay: Biocide test, MIC in tryptone soy broth; type: cell-based; conditions: 30° C., 48 hours; for MIC value, from: lower limit of MIC range; for MIC value, to: upper limit of MIC range
Method: as §1, §2, §3, §4, §5, §6, §7, §8, §9

C. albicans NCPF 3179 = assay: Biocide test, MIC in tryptone soy broth; type: cell-based; conditions: 25° C., 5 days; for MIC value, from: lower limit of MIC range; for MIC value, to: upper limit of MIC range
Method: as §1, §2, §3, §4, §5, §6, §7, §8, §9

A. niger IMI 149007 = assay: Biocide test, MIC in tryptone soy broth; type: cell-based; conditions: 25° C., 5 days; for MIC value, from: lower limit of MIC range; for MIC value, to: upper limit of MIC range
Method: as §1, §2, §3, §4, §5, §6, §7, §8, §9

E. coli NCIMB 8545 = assay: Biocide test, MIC in tryptone soy broth; type: cell-based; conditions: 30° C., 48 hours; for MIC value, from: lower limit of MIC range; for MIC value, to: upper limit of MIC range
Method: as §1, §2, §3, §4, §5, §6, §7, §8, §9

[1] = system: P. aeruginosa NCIMB 10421; assay: Biocide test, MIC in tryptone soy broth; type: cell-based; conditions: 30° C., 48 hours; for MIC value, from: lower limit of MIC range; for MIC value, to: upper limit of MIC range
Method: as §1, §2, §3
P. aeruginosa NCIMB 10421
as §4, §5, §6, §7, §8, §9

microorganisms = conditions: as stated for the comparison substances; cited from earlier work
[2] = system: series of tested microorganisms; assay: Biocide test, highest measured MIC from the series of tested microorganisms; type: cell-based; conditions: highest measured MIC of the six microorganisms; for Maximum MIC value, from: lower limit of range; for Maximum MIC value, to: upper limit of range
Method: as §3, §6, §9
In the last line of each of the tables below, a “maximum” value is listed. This value indicates the highest measured MIC value in each case from the series of tested microorganisms.

| Compound | MIC value, from (S. aureus NCIMB 9578) | MIC value, to (S. aureus NCIMB 9578) | MIC value, from (P. vulgaris NCIMB 4175) | MIC value, to (P. vulgaris NCIMB 4175) | MIC value, from (C. albicans NCPF 3179) | MIC value, to (C. albicans NCPF 3179) | MIC value, from (A. niger IMI 149007) | MIC value, to (A. niger IMI 149007) | MIC value, from (E. coli NCIMB 8545) | MIC value, to (E. coli NCIMB 8545) | MIC value, from [1] | MIC value, to [1] | biocidal effect (microorganisms) | Maximum MIC value, from [2] | Maximum MIC value, to [2] |
| --- | --- | --- | --- | --- | --- | --- | --- | --- | --- | --- | --- | --- | --- | --- | --- |
| CCCC(O)CO (centres unmarked) [1,2-Pentanediol] | >25 000 ppm of diol | ≦50 000 ppm of diol | >25 000 ppm of diol | ≦50 000 ppm of diol | >25 000 ppm of diol | ≦50 000 ppm of diol | >12 500 ppm of diol | ≦25 000 ppm of diol | >25 000 ppm of diol | ≦50 000 ppm of diol | >12 500 ppm of diol | ≦25 000 ppm of diol | high biocidal effect | >25 000 ppm of diol | ≦50 000 ppm of diol |
| CC(O)CC(C)O (centres unmarked) [2,4-Pentanediol] | >50 000 ppm of diol | ≦100 000 ppm of diol | >50 000 ppm of diol | ≦100 000 ppm of diol | >50 000 ppm of diol | ≦100 000 ppm of diol | >200 000 ppm of diol | ≦400 000 ppm of diol | >50 000 ppm of diol | ≦100 000 ppm of diol | >50 000 ppm of diol | ≦100 000 ppm of diol | low biocidal effect | >200 000 ppm of diol | ≦400 000 ppm of diol |
| CC(O)CO (centres unmarked) [Propylene Glycol] | >200 000 ppm of diol | ≦400 000 ppm of diol | >100 000 ppm of diol | ≦200 000 ppm of diol | >200 000 ppm of diol | ≦400 000 ppm of diol | >200 000 ppm of diol | ≦400 000 ppm of diol | >200 000 ppm of diol | ≦400 000 ppm of diol | >100 000 ppm of diol | ≦200 000 ppm of diol |  | >200 000 ppm of diol | ≦400 000 ppm of diol |
| Hydroxymethylbicyclo[2.2.1]hept-2-ylmethanol isomers [2,5-2,6-DMNB] | >6 250 ppm of diol | ≦12 500 ppm of diol | >6 250 ppm of diol | ≦12 500 ppm of diol | >50 000 ppm of diol | ≦100 000 ppm of diol | >50 000 ppm of diol | ≦100 000 ppm of diol | >6 250 ppm of diol | ≦12 500 ppm of diol | >6 250 ppm of diol | ≦12 500 ppm of diol |  | >50 000 ppm of diol | ≦100 000 ppm of diol |
| Hydroxymethylbicyclo[2.2.1]hept-2-ylpropan-1-ol isomers [ENB-Diol] | >3 125 ppm of diol | ≦6 250 ppm of diol | >3 125 ppm of diol | ≦6 250 ppm of diol | >12 500 ppm of diol | ≦25 000 ppm of diol | >12 500 ppm of diol | ≦25 000 ppm of diol | >3 125 ppm of diol | ≦6 250 ppm of diol | >50 000 ppm of diol | ≦100 000 ppm of diol |  | >50 000 ppm of diol | ≦100 000 ppm of diol |
| Hydroxymethylcyclohexylpropan-1-ol isomers [CHA-diol] | >6 250 ppm of diol | ≦12 500 ppm of diol | >3 125 ppm of diol | ≦6 250 ppm of diol | >6 250 ppm of diol | ≦12 500 ppm of diol | >200 000 ppm of diol | ≦400 000 ppm of diol | >3 125 ppm of diol | ≦6 250 ppm of diol | >50 000 ppm of diol | ≦100 000 ppm of diol |  | >200 000 ppm of diol | ≦400 000 ppm of diol |
